Patent publication US20170143674A1, “Use of Glutaryl Histamine for the Treatment of Respiratory Tract Diseases” (LTD "VALENTA-INTELLEKT", priority 2011, published 2017)
Marks after values point to notes of the source that are not given here.

Key:
[1] = test system: acute rhinosinusitis induced by intranasal administration of formalin; type: in vivo, rat
Experimental: Activity of glutaryl histamine was studied in an experimental model of acute rhinosinusitis (ARS).
Administration of 20 μl of 7.5% formalin to the rat nasal passages leads to the development of a clinical picture similar to the symptoms of acute rhinosinusitis in a human.
The tested medicament and reference medicaments were administered for 7 days after administration of 7.5% formalin. Normal saline solution was used as placebo. The animals were subjected to euthanasia on day 8 after induction of experimental acute rhinosinusitis by method of air embolism. During necropsy, nasal passages of all animals were sampled. The obtained material was placed into 10% neutral-buffered formalin for further histological analysis.
The mucous and submucous membranes of both nasal passages (respiratory and olfactory regions) of the experimental animals were subjected to a morphological analysis of the specific activity of glutaryl histamine.
After the clinical phase of the experiment, the material derived from the animals was subjected to the standard treatment to prepare histological paraffin sections with a thickness of 3 to 5 μm. The sections were stained with hematoxylin and eosin for a microscopic study. Comparison and histological analysis of changes were performed versus the group of intact rats.
The main pathological processes inherent in experimental acute rhinosinusitis, such as vascular congestion in mucous membrane, hyperplasia and necrosis of the epithelium, the number of caliciform cells within 1 mm of the mucous membrane in the nasal septum, were evaluated by a semi-quantitative method to evaluate the degree of pathophysiological changes in histological, histochemical and morphological studies.
The microscopic analysis of exudative disorder developed in rats with acute rhinitis was aimed at measuring the number of caliciform cells comprising acidic mucus (Table 3).

[2] = test system: acute respiratory distress syndrome (ARDS); test: ARDS model, single intravenous LPS 7.5 mg/kg; type: in vivo, rat; settings: Dexamethasone 5 mg/kg
Experimental: (§1) Since an intravenous administration of lipopolysaccharide (LPS) to animals is one of the most acceptable models for studying the pathogenesis, pathomorphological changes and consequences of acute respiratory distress syndrome, this model was used in this example. Tested medicament glutaryl histamine was administered for 9 days after the first administration of LPS, i.e. glutaryl histamine was administered for 12 days in total (3 days before the induction of ARDS and 9 days during and after the induction). The exception was dexamethasone since, according to the literature data and the information leaflet, long-time administration of steroidal anti-inflammatory agents can cause severe side effects. For this reason, dexamethasone was administered according to the following schedule: 49, 24 and 1 hour before the induction of ARDS in a dose of 5 mg/kg, for 3 days after the first injection of LPS in the same dose; the medicament was withdrawn by a gradual dose reduction for 3 days. Thus, dexamethasone was administered 9 times.
The mortality rate among the animals administered LPS in an intravenous dose of 7.5 mg/kg was 70% for 8 days. The most of them (60%) died on the first day, in particular, from 4 to 12-16 hours after the injection of LPS. The mortality rate among the animals administered glutaryl histamine was different from the rate in animals treated with dexamethasone; however, most of them also died on the first day, about in the same time period (Table 11).

[3] = test system: acute respiratory distress syndrome (ARDS); test: ARDS model, multiple-dose intravenous LPS (LD30); type: in vivo, rat
Experimental: as §1
At this step, animals were administered LPS at more lower dose, but for longer time period. They were received 2 mg/kg on days 1 and 2, and 3 and 4 mg/kg on days 3 and 4, respectively. The maximum mortality rate, similarly to the single-dose administration of LD70, was on the first day. On eighth day, mortality reached 33%.
The second step of the experiment comprises the evaluation of both the mortality rate of the animals with calculation of the protective index and narrower indexes used for determination of a specific protection provided by glutaryl histamine in ARDS. As was disclosed above, a lower dose of LPS (LD30) was used at the second stage. In addition, LPS was administered every day for 4 days. This method of administration was aimed at achieving the maximum disorder exactly in the lung for subsequent evaluation of possible protective action of glutaryl histamine.

LPS-induced tonsillitis = LPS-induced tonsillitis model (E. coli LPS into cervical lymph node); type: in vivo
Experimental: This example is aimed at evaluating the activity of glutaryl histamine on experimental model of tonsillitis. LPS-induced tonsillitis is one of the most adequate models for the study of the pathogenesis, pathomorphological changes and action of pharmacological medicaments on the course of this disease.
Tonsillitis was induced under anesthesia by administration of a solution of E. coli lipopolysaccharide (LPS) (Sigma) in normal physiological solution in a dose of 20 μg/kg, by 10 μl to the right upper lymph node (Inn. Cervicales superficiales). After administration, the lymph nodes were put under superficial neck muscles and then the skin was stitched. The wound was treated with streptocide. The animal was placed into a post-operation cage.
The tested medicament was administered once daily in a given dose strictly at the stated time for three days before the induction of tonsillitis and 10 days after. Normal saline solution was used as placebo.
Immediately after euthanasia, the animals were subjected to necropsy, the affected and intact lymph nodes were removed and weighed.
The lymph nodes derived from the half of animals from each group were being frozen after removal in a refrigerating chamber at −25° C. for 72 hours. Then the lymph nodes were lyophilized.
In a half of animals from each group (7), the affected lymph nodes were subjected to histological analysis. After euthanasia, intact and affected lymph nodes were removed from each animal. […] Sections with a thickness of 4 to 6 μm were prepared from the paraffin blocks, stained with hematoxylin and eosin to reveal typical pathological processes and study required parameters using light-optical microscope Leica DM LS (magnification 200× and 400×).
Weights of intact and affected lymph nodes were compared and the nodes also were lyophilized to evaluate an effect of the medicaments on the swelling degree and adequacy of the model of tonsillitis.
The protein-synthetic function of the liver and a systemic effect of the medicaments on organism were evaluated in total protein (TP) analysis.

SMILES: C[C@@H]1C[C@H]2[C@@H]3CCC4=CC(=O)C=C[C@]4(C)[C@@]3(F)[C@@H](O)C[C@]2(C)[C@@]1(O)C(=O)CO [Dexamethasone, dexamethasone, reference compound]
- Mucopurulent catarrh (number of rats) ([1]; Dexamethasone 5 mg/kg, n = 10): 0
- Mucous catarrh (number of rats) ([1]; Dexamethasone 5 mg/kg, n = 10): 1
- Without changes (number of rats, mucous membrane in the nasal passages, macroscopic) ([1]; Dexamethasone 5 mg/kg, n = 10): 9
- The number of caliciform cells within 1 mm of the mucosal membrane of the nasal septum ([1]; Dexamethasone (5 mg/kg), M ± m): 15.6 ± 0.6
- IP (%) (protective index) [2]: 28.6%
- S (%) (survival rate) [2]: 50%
- Me (%) (mortality rate) ([2]; 8 days): 50%
- Died ([2]; total number 10): 5
- IP (%) (protective index) ([3]; Dexamethasone 5 mg/kg): 62.5%
- M (%) (mortality rate) ([3]; Dexamethasone 5 mg/kg): 12.5%
- S (%) (survival rate) ([3]; Dexamethasone 5 mg/kg): 87.5%
- Died ([3]; Dexamethasone 5 mg/kg, total number 24): 3
- mortality rate for the first three days ([3]; dexamethasone (5 mg/kg), first three days): 0%
- Mortality rate (%) (LPS-induced tonsillitis; Dexamethasone 5 mg/kg): 64%
- The number of died animals/initial number of animals in a group (LPS-induced tonsillitis; Dexamethasone 5 mg/kg): 9/14
- Area of germinal centers of lymphoid follicles in affected lymph nodes (LPS-induced tonsillitis; Dexamethasone (5 mg/kg), M ± m): 0.016 ± 0.004* ** mm^2
- Weight difference between affected and intact lymph nodes (LPS-induced tonsillitis; Dexamethasone (5 mg/kg), M ± m): 15.6 ± 1.8 mg
